Reference: publication PMC7566095 (iScience, 2020)
One block for each sequence: values may come before it. Bridge positions count the residues as written; N and C are the ends. Ends that are not written are not given here.

Key:
Parameters in all cases: species or system HIV
[1] = biological target: mAb 257D binding to SF162 gp120 protein; experiment: Competition peptide ELISA, mAb 257D
[2] = system: mAb 447-52D binding to SF162 gp120 protein; experiment: Competition peptide ELISA, mAb 447-52D; conditions: for competition of peptide for binding of mAb 447-52D to gp120 protein: peptide 4-fold serial dilutions beginning at 20 ug/mL
[3] = system: mAb F240 binding to MN gp41 protein; experiment: Competition peptide ELISA, mAb F240; conditions: peptide 4-fold serial dilutions beginning at 20 ug/mL
[4] = system: mAb 240D binding to MN gp41 protein; experiment: Competition peptide ELISA, mAb 240D; conditions: peptide 4-fold serial dilutions beginning at 20 ug/mL
[5] = competition ELISA, SF162 gp120 coated, unpaired t test, three replicate experiments
[6] = competition ELISA, SF162 gp120 coated

Sequence: EKSIHIGPGRAFY [R304E]
IC50 of peptide compared with wild-type V3 peptide, mAb 257D [1, 5]: did not yield IC50 values that were significantly different from the wild-type peptide

Sequence: RTSIHIGPGRAFY [K305T]
IC50 of peptide compared with wild-type V3 peptide, mAb 447-52D [2, 5]: did not yield IC50 values that were significantly different from the wild-type peptide

Sequence: RKSIHIGPGRATY [F317T]
competition of peptide for binding of mAb 447-52D to gp120 protein [2]: improved binding above wild-type levels

Sequence: RKSIHIGPGWAFY [R315W]
fold increase in IC50 versus wild-type V3 peptide, mAb 257D [1, 6]: 5 fold
fold increase in IC50 versus wild-type V3 peptide, mAb 447-52D [2, 6]: 72 fold

Sequence: LLGIWGDSGKLICTTNVP [C598D]
competition of peptide for binding of mAb F240 to gp41 protein [3]: no longer competes for binding
competition of peptide for binding of mAb 240D to gp41 protein [4]: no longer competes for binding

Next, values leading:

competition of peptide for binding of mAb 257D to gp120 protein ([1]; peptide 4-fold serial dilutions beginning at 20 ug/mL): competed for binding
competition of peptide for binding of mAb 447-52D to gp120 protein [2]: competed for binding
Sequence: RKSIHIGPGRAFY [wild-type V3 peptide]

competition of peptide for binding of mAb F240 to gp41 protein [3]: competed for binding
competition of peptide for binding of mAb 240D to gp41 protein [4]: competed for binding
Sequence: LLGIWGCSGKLICTTNVP (disulfide 7-13 (inferred)) [wild-type gp41 peptide]
